Assay results published in ChEMBL document CHEMBL1759890, “3,5-Disubstituted-indole-7-carboxamides: the discovery of a novel series of potent, selective inhibitors of IKK-β” (Bioorg Med Chem Lett, 2011).

Legend:
[1] = molecular target: Casein kinase I isoform epsilon (Homo sapiens, UniProt P49674); test: Binding affinity to CSNK1eplison assessed as dissociation constant
[2] = molecular target: T1, Inhibitor of nuclear factor kappa-B kinase subunit epsilon (Homo sapiens, UniProt Q14164); test: Inhibition of IKK-epsilon
T1 sequence (Q14164 whole entry): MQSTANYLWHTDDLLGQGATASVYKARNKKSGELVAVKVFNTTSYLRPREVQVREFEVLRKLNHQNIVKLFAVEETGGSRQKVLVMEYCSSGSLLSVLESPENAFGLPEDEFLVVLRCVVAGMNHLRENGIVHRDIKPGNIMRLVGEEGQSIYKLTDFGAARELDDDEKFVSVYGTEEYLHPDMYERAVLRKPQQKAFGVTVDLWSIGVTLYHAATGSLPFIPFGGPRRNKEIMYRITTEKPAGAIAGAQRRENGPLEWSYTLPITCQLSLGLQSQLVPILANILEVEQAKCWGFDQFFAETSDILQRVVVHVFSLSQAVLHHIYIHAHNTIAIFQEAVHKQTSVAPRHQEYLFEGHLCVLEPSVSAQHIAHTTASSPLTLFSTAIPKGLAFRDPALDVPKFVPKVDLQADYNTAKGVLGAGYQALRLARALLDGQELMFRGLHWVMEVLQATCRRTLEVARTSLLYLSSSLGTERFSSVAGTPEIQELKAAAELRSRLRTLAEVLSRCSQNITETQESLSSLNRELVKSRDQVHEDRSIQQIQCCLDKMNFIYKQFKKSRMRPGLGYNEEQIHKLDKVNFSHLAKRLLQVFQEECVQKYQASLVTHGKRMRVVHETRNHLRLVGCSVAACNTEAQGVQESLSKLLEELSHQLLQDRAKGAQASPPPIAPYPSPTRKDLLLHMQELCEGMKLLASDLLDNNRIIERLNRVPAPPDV

[3] = molecular target: T2, Serine/threonine-protein kinase TBK1 (Homo sapiens, UniProt Q9UHD2); test: Inhibition of TBK-1
T2 sequence (Q9UHD2 whole entry): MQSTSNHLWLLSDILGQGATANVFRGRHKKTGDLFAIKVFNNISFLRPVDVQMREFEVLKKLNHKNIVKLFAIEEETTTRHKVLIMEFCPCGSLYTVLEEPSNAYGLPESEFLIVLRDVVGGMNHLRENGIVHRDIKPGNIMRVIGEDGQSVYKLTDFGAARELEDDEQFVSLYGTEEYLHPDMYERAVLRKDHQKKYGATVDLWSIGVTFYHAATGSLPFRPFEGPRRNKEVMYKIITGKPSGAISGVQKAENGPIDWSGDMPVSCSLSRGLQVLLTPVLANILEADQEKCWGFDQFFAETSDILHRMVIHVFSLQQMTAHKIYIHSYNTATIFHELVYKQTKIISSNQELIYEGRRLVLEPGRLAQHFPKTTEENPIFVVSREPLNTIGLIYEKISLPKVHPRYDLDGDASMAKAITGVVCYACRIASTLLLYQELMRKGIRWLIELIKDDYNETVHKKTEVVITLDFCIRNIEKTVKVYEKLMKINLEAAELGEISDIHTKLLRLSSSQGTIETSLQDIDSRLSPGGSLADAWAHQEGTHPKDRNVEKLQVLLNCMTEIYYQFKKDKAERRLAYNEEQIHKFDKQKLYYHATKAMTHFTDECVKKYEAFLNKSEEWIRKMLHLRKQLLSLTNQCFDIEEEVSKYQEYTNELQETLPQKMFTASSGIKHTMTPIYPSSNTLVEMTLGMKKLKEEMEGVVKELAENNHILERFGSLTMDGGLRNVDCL

[4] = molecular target: T3, Inhibitor of nuclear factor kappa-B kinase subunit beta (Homo sapiens, UniProt O14920); test: Inhibition of IKK-beta
T3 sequence (O14920 whole entry): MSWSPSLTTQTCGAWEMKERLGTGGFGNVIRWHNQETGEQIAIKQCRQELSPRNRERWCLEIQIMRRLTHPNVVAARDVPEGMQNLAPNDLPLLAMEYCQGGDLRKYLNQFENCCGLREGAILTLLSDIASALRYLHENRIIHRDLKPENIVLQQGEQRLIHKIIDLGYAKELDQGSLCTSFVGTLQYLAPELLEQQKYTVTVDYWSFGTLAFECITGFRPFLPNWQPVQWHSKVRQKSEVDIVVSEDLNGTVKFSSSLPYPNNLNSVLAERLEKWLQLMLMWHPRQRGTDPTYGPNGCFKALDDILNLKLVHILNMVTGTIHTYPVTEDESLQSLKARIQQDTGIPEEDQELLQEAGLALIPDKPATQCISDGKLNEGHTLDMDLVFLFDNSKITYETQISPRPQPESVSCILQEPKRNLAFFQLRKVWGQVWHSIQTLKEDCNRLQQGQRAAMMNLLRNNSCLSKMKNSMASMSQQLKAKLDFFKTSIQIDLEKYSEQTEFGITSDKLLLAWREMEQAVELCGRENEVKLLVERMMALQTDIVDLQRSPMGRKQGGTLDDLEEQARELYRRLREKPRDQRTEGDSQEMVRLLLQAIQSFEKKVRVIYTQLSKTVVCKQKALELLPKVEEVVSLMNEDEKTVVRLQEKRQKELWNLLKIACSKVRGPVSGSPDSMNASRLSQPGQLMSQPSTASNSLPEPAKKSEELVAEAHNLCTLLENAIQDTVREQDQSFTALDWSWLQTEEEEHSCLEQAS

[5] = molecular target: T3, Inhibitor of nuclear factor kappa-B kinase subunit beta; test: Inhibition of IKK-beta in human A549 cells assessed as TNF-alpha-induced Nuclear factor-kappa-B nuclear translocation

Sequence of Casein kinase I isoform epsilon (P49674 whole entry, canonical isoform): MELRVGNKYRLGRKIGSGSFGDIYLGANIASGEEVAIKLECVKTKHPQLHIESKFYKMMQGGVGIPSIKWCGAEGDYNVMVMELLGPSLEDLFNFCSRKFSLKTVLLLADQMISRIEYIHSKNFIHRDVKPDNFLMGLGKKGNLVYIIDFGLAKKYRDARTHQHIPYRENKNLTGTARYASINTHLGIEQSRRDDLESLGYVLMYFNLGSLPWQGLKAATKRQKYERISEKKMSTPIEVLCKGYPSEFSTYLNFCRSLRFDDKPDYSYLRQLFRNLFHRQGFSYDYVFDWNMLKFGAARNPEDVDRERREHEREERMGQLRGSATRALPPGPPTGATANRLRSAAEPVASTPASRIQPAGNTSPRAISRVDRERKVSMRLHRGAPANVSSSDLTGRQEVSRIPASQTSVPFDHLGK

Kd [1]: 1580 nM
IC50 [2]: > 3160 nM
IC50 [3]: > 3160 nM
IC50 [4]: 12.6 nM
IC50 [5]: 158 nM
Compound: CCCS(=O)(=O)N1CCC(c2c[nH]c3c(C(N)=O)cc(-c4ccccc4)cc23)CC1
